Assay results as given in PubChem BioAssay (NCI).
Values joined by “and” are separate entries in the source; they are usually repeats but may differ in a detail not shown here. Equal values may be shown once.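 Growth conditions: 96-well plates. Treatment: test compound, 48 hours, 5 concentrations. Analysis: linear interpolation between bracketing concentrations; unreached endpoints set to highest concentration. GI50 = concentration required for 50% inhibition of growth. TGI denotes the concentration required for complete inhibition of growth.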

Tests used:
Assay in all cases: NCI tumour cell line growth inhibition, 48 h
[1] = system: 786-0 renal
[2] = system: A498 renal
[3] = system: CAKI-1 renal
[4] = system: HCT-15 colon
[5] = system: HOP-62 NSCLC
[6] = system: HOP-92 NSCLC
[7] = system: KM12 colon
[8] = system: SR leukemia
[9] = system: UO-31 renal
[10] = system: M14 melanoma

Cc1ccc([N+](=O)[O-])cc1NC(=O)C(=O)Cc1occc(=O)c1O
TGI [1]: > 100 µM
TGI [2]: > 100 µM
TGI [3]: > 100 µM
TGI [4]: > 100 µM
TGI [5]: > 100 µM
TGI [6]: > 100 µM
TGI [7]: > 100 µM
TGI [8]: > 100 µM
TGI [9]: > 100 µM

CNNCc1ccc(C(=O)NC(C)C)cc1
GI50 [1]: > 500 µM
TGI [1]: > 500 µM
TGI [2]: > 500 µM
GI50 [3]: > 500 µM
TGI [3]: > 500 µM
GI50 [4]: > 500000 nM
TGI [4]: > 500 µM
GI50 [5]: > 500 µM
TGI [5]: > 500 µM
GI50 [6]: 459 µM
TGI [6]: 391 µM and > 500 µM
TGI [7]: > 500 µM
TGI [10]: > 500 µM
TGI [8]: > 375 µM
TGI [9]: > 500 µM

CC1(C)OC(C(N)=O)=C(C(N)=O)O1
TGI [1]: > 100 µM
TGI [2]: > 100 µM
TGI [3]: > 100 µM
TGI [4]: > 100 µM
TGI [5]: > 100 µM
TGI [6]: > 100 µM
TGI [7]: > 100 µM
TGI [10]: > 100 µM
TGI [8]: > 100 µM
TGI [9]: > 100 µM

COc1ccc(N(CC(=O)NCCC[Te]c2ccccc2)C(=O)CCSC2=C(C)C(=O)c3ccccc3C2=O)cc1
GI50 [1]: 2.32 µM
TGI [1]: 4.91 µM
GI50 [2]: 1.96 µM
TGI [2]: 4.61 µM
GI50 [3]: 2.25 µM
TGI [3]: 6.24 µM
GI50 [4]: 673 nM
TGI [4]: 3.21 µM
GI50 [5]: 0.582 µM
TGI [5]: 1.58 µM
GI50 [6]: 1.72 µM
TGI [6]: 4.44 µM
GI50 [7]: 702 nM
TGI [7]: 2.18 µM
GI50 [10]: 1170 nM
TGI [10]: 2.99 µM
GI50 [8]: 498 nM
TGI [8]: > 100 µM
GI50 [9]: 0.437 µM
TGI [9]: 2.45 µM

Cc1ccccc1NC(=O)C(=O)C(c1cnc2ccc([N+](=O)[O-])cc2n1)[N+](=O)[O-] (centres undefined)
TGI [1]: > 100 µM
TGI [2]: > 100 µM
TGI [3]: > 100 µM
TGI [4]: > 100 µM
TGI [5]: > 100 µM
TGI [6]: > 100 µM
TGI [7]: > 100 µM
TGI [10]: > 100 µM
TGI [8]: > 100 µM
TGI [9]: > 100 µM

CN(C)C(=O)/N=c1\ss/c(=N\C(=S)N(C)C)n1-c1ccccc1
TGI [1]: 47.1 µM
TGI [2]: > 100 µM
GI50 [3]: 2.76 µM
TGI [3]: > 100 µM
TGI [4]: > 100 µM
TGI [5]: > 100 µM
TGI [6]: > 100 µM
TGI [7]: > 100 µM
TGI [10]: > 74.5 µM
TGI [8]: > 100 µM
TGI [9]: > 100 µM

O=[N+]([O-])c1cc(CCl)ccc1CCl
TGI [1]: 3.34 µM
TGI [2]: 16.1 µM
TGI [3]: 2.76 µM
TGI [4]: 3.64 µM
TGI [5]: 2.93 µM
TGI [6]: 3.37 µM
TGI [7]: 3.25 µM
TGI [10]: 3.59 µM
TGI [8]: 5.17 µM
TGI [9]: 3.18 µM

Cc1cccc2c(N=Nc3ccc(S(N)(=O)=O)cc3)c(O)[nH]c12
GI50 [1]: > 25 µM
TGI [1]: > 25 µM
GI50 [2]: > 25 µM
TGI [2]: > 25 µM
GI50 [3]: > 25 µM
TGI [3]: > 25 µM
GI50 [4]: > 25000 nM
TGI [4]: > 25 µM
GI50 [5]: > 25 µM
TGI [5]: > 25 µM
GI50 [6]: > 25 µM
TGI [6]: > 25 µM
GI50 [7]: > 25000 nM
TGI [7]: > 25 µM
GI50 [10]: > 25000 nM
TGI [10]: > 25 µM
GI50 [8]: > 25000 nM
TGI [8]: > 25 µM
GI50 [9]: > 25 µM
TGI [9]: > 25 µM

N/C(=N\N=C\c1cccs1)NO
TGI [1]: > 100 µM
TGI [2]: > 100 µM
TGI [3]: > 100 µM
TGI [4]: > 100 µM
TGI [5]: > 100 µM
TGI [6]: > 100 µM
TGI [7]: > 100 µM
TGI [10]: > 100 µM
TGI [8]: > 100 µM
TGI [9]: > 100 µM

COc1cc(C#N)cc(OC)c1OCCOCCOc1c(OC)cc(C#N)cc1OC
GI50 [1]: > 100 µM
TGI [1]: > 100 µM
GI50 [2]: 35.4 µM
TGI [2]: > 100 µM
GI50 [3]: > 100 µM
TGI [3]: > 100 µM
GI50 [4]: > 100000 nM
TGI [4]: > 100 µM
GI50 [5]: > 100 µM
TGI [5]: > 100 µM
GI50 [6]: 10.3 µM
TGI [6]: 78.4 µM
GI50 [7]: 51700 nM
TGI [7]: > 100 µM
GI50 [10]: 52200 nM
TGI [10]: > 100 µM
GI50 [8]: 4330 nM
TGI [8]: > 100 µM
GI50 [9]: 26.4 µM
TGI [9]: > 100 µM

Clc1cc(Cl)c(Cl)c(-c2nc(-c3cccnc3)cs2)c1
GI50 [1]: 12.9 µM
TGI [1]: 29.8 µM
GI50 [2]: 53.9 µM
TGI [2]: > 100 µM
GI50 [3]: 7.43 µM
TGI [3]: 78.7 µM
GI50 [4]: 16000 nM
TGI [4]: 42.5 µM
GI50 [5]: 23.5 µM
TGI [5]: 83.8 µM
GI50 [6]: 15.4 µM
TGI [6]: 48.1 µM
GI50 [7]: 51400 nM
TGI [7]: > 100 µM
GI50 [10]: 4470 nM
TGI [10]: > 100 µM
GI50 [8]: > 100000 nM
TGI [8]: > 100 µM
GI50 [9]: 31 µM
TGI [9]: > 100 µM

O=c1cc(-c2ccc(Cl)cc2)[nH]c2ncccc12
GI50 [1]: 34.1 µM
TGI [1]: > 100 µM
TGI [2]: > 100 µM
TGI [3]: > 100 µM
TGI [4]: > 100 µM
TGI [5]: > 100 µM
TGI [6]: > 100 µM
TGI [7]: > 100 µM
TGI [10]: > 100 µM
TGI [8]: 37.5 µM
TGI [9]: > 100 µM

CCCc1cc2cc(-n3nc(C)c4c3CC(C)(C)CC4=O)cc(NC3CCC(O)CC3)c2c(=O)[nH]1 (centres undefined)
GI50 [1]: 0.874 µM
TGI [1]: > 100 µM
GI50 [2]: 0.437 µM
TGI [2]: > 100 µM
GI50 [4]: 167 nM
TGI [4]: > 100 µM
GI50 [5]: 0.129 µM
TGI [5]: > 100 µM
GI50 [6]: 0.194 µM
TGI [6]: 1.8 µM
GI50 [7]: 98.6 nM
TGI [7]: > 100 µM
GI50 [10]: 94.4 nM
TGI [10]: > 100 µM
GI50 [8]: 122 nM
TGI [8]: > 100 µM
GI50 [9]: 0.146 µM
TGI [9]: > 100 µM

COc1ccc(-c2cc(=O)c3c(OC)c(OC)c(OC)c(OC)c3o2)cc1OC
TGI [1]: > 100 µM
TGI [2]: > 100 µM
TGI [3]: > 100 µM
TGI [4]: > 100 µM
TGI [5]: > 100 µM
TGI [6]: 74.4 µM
TGI [10]: > 100 µM
TGI [8]: > 100 µM
TGI [9]: > 100 µM

C=C1C(=O)O[C@H]2[C@H]1CC/C(COC(=O)CCCCCCCCC(=O)OC/C1=C/CC[C@@]3(C)O[C@H]3[C@H]3OC(=O)C(=C)[C@@H]3CC1)=C\CC[C@@]1(C)O[C@@H]21
GI50 [1]: 1.75 µM
TGI [1]: 3.41 µM
GI50 [2]: 5.82 µM
TGI [2]: 18 µM
GI50 [4]: 1910 nM
TGI [4]: 4.47 µM
GI50 [5]: 2.03 µM
TGI [5]: 4.65 µM
GI50 [6]: 1.94 µM
TGI [6]: 4.38 µM
GI50 [7]: 2130 nM
TGI [7]: 4.68 µM
GI50 [10]: 1630 nM
TGI [10]: 3.41 µM
GI50 [8]: 1390 nM
TGI [8]: 11 µM
GI50 [9]: 1.47 µM
TGI [9]: 2.95 µM

COc1ccc(-c2cnc3ccnn3c2-c2cc(OC)c(OC)c(OC)c2)cc1
GI50 [1]: 4.31 µM
TGI [1]: > 100 µM
GI50 [2]: 0.293 µM
TGI [2]: 4.47 µM
GI50 [4]: 2120 nM
TGI [4]: > 100 µM
GI50 [5]: 7.49 µM
TGI [5]: > 100 µM
GI50 [6]: > 100 µM
TGI [6]: > 100 µM
GI50 [7]: 1670 nM
TGI [7]: > 100 µM
GI50 [10]: 2650 nM
TGI [10]: 35.5 µM
GI50 [8]: 1660 nM
TGI [8]: > 100 µM
GI50 [9]: 4.25 µM
TGI [9]: > 100 µM
